Measurements taken from ChEMBL document CHEMBL3576801, “Praeruptorin A inhibits in vitro migration of preosteoclasts and in vivo bone erosion, possibly due to its potential to target calmodulin” (J Nat Prod, 2015).
Calls of active or inactive are those of the source.

Columns and labels:
[1] = target: Calmodulin-1 (Mus musculus) (UniProt P0DP26); experiment: (§1) Binding affinity to Ca2+/calmodulin complex in preosteoclast derived from ICR mouse bone marrow-derived macrophages assessed as inhibition of RANKL-induced NFATc1 nuclear translocation at 10 uM preincubated for 30 mins with M-CSF followed by RANKL induction measured after 3 to 7 hrs by Western blot analysis
[2] = target: Calmodulin-1 (Mus musculus) (UniProt P0DP26); experiment: Binding affinity to Ca2+/calmodulin complex in preosteoclast derived from ICR mouse bone marrow-derived macrophages assessed as inhibition of CREB phosphorylation at S133 preincubated for 30 mins with M-CSF followed by RANKL induction measured after 30 mins by Western blot analysis
[3] = target: Calmodulin-1 (Mus musculus) (UniProt P0DP26); experiment: as §1, with “alphaV-integrin mRNA expression” for “NFATc1 nuclear translocation”, “3” for “3 to 7”, “real-time PCR” for “Western blot”
Mus musculus [4] = experiment: Antiresorptive activity in ICR mouse assessed as inhibition of LPS-induced changes in bone volume/tissue volume at 2 to 4 mg/kg, ip administered for 8 days with LPS challenge on day 2 and 5 measured on day 9 by histomorphometric analysis; type: functional, organism-based
[5] = target: Calmodulin-1 (Mus musculus) (UniProt P0DP26); experiment: as §1, with “cathepsin K mRNA expression” for “NFATc1 nuclear translocation”, “3” for “3 to 7”, “real-time PCR” for “Western blot”
Calmodulin (Bos taurus) [6] = target: Calmodulin (Bos taurus) (UniProt P62157); experiment: Binding affinity to bovine brain calmodulin at 0.1 mM after 60 mins by gel mobility shift assay in presence of CaCl2
Calmodulin (Bos taurus) [7] = target: Calmodulin (Bos taurus) (UniProt P62157); experiment: Binding affinity to bovine brain calmodulin at 0.1 mM after 60 mins by gel mobility shift assay in presence of EGTA
[8] = target: Calmodulin-1 (Mus musculus) (UniProt P0DP26); experiment: Binding affinity to Ca2+/calmodulin complex in preosteoclast derived from ICR mouse bone marrow-derived macrophages assessed as inhibition of NFATc1 nuclear translocation at 0.3 to 10 uM preincubated for 30 mins with M-CSF followed by RANKL induction measured after 30 mins by Western blot analysis
Mus musculus [9] = experiment: Antiresorptive activity in ICR mouse assessed as inhibition of LPS-induced changes in trabecular number at 2 to 4 mg/kg, ip administered for 8 days with LPS challenge on day 2 and 5 measured on day 9 by histomorphometric analysis; type: functional, organism-based; settings: Trabecula
[10] = target: Calmodulin-1 (Mus musculus) (UniProt P0DP26); experiment: Binding affinity to Ca2+/calmodulin complex in preosteoclast derived from ICR mouse bone marrow-derived macrophages assessed as inhibition of CaMK-4 phosphorylation at T196 preincubated for 30 mins with M-CSF followed by RANKL induction measured after 30 mins by Western blot analysis
[11] = target: T1, Tumor necrosis factor ligand superfamily member 11 (Mus musculus) (UniProt O35235); experiment: Inhibition of RANKL-induced migration of preosteoclast derived from ICR mouse bone marrow-derived macrophages after 8 hrs by Boyden chamber assay; type: functional, cell-based; settings: Osteoclast
T1 sequence (whole entry): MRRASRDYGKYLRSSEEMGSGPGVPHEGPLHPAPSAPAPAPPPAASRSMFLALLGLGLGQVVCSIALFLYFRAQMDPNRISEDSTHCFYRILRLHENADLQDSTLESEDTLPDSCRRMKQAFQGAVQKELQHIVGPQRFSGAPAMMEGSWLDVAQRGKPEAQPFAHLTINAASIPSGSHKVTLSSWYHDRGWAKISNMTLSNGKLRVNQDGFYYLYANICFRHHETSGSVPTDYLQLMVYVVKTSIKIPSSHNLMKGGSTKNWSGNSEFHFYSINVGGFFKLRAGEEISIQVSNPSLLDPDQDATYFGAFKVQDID

[12] = target: Calmodulin-1 (Mus musculus) (UniProt P0DP26); experiment: Binding affinity to Ca2+/calmodulin complex in preosteoclast derived from ICR mouse bone marrow-derived macrophages assessed as inhibition of RANKL-induced NFATc1 mRNA expression at 10 uM preincubated for 30 mins with M-CSF followed by RANKL induction measured after 3 hrs by real-time PCR analysis
Mus musculus [13] = experiment: Antiresorptive activity in ICR mouse assessed as inhibition of LPS-induced changes in trabecular thickness at 2 to 4 mg/kg, ip administered for 8 days with LPS challenge on day 2 and 5 measured on day 9 by histomorphometric analysis; type: functional, organism-based; settings: Trabecula
[14] = target: Calmodulin-1 (Homo sapiens) (UniProt P0DP23); experiment: Binding affinity to recombinant human calmodulin assessed as inhibition of calcineurin phosphatase activity using R2 phosphopeptide substrate at 3 to 10 uM after 30 mins by malachite green staining-based colorimetric analysis in presence of CaCl2
Mus musculus [15] = experiment: Antiresorptive activity in ICR mouse assessed as reduction of LPS-induced trabecular bone loss at 2 to 4 mg/kg, ip administered for 8 days with LPS challenge on day 2 and 5 measured on day 9 by hematoxylin and eosin staining; type: functional, organism-based; settings: Trabecula
[16] = Cytotoxicity against preosteoclast derived from ICR mouse bone marrow-derived macrophages assessed as cell viability at 0.1 to 10 uM after 1 day by CCK-8 assay; type: cell-based; settings: osteoclast, 24 h
Mus musculus [17] = experiment: Antiresorptive activity in ICR mouse assessed as inhibition of LPS-induced changes in bone mineral density at 2 to 4 mg/kg, ip administered for 8 days with LPS challenge on day 2 and 5 measured on day 9 by histomorphometric analysis; type: functional, organism-based
Mus musculus [18] = experiment: Antiresorptive activity in ICR mouse assessed as inhibition of LPS-induced changes in trabecular separation at 2 to 4 mg/kg, ip administered for 8 days with LPS challenge on day 2 and 5 measured on day 9 by histomorphometric analysis; type: functional, organism-based; settings: Trabecula
[19] = target: Calmodulin-1 (Mus musculus) (UniProt P0DP26); experiment: Binding affinity to Ca2+/calmodulin complex in preosteoclast derived from ICR mouse bone marrow-derived macrophages assessed as inhibition of RANKL-induced c-Fos mRNA expression at 10 uM preincubated for 30 mins with M-CSF followed by RANKL induction measured after 3 hrs by real-time PCR analysis
Mus musculus [20] = experiment: Antiresorptive activity in ICR mouse assessed as inhibition of LPS-induced cancellous bone loss in distal metaphysis at 2 to 4 mg/kg, ip administered for 8 days with LPS challenge on day 2 and 5 measured on day 9 by microCT analysis; type: functional, organism-based
[21] = target: Calmodulin-1 (Mus musculus) (UniProt P0DP26); experiment: Binding affinity to Ca2+/calmodulin complex in preosteoclast derived from ICR mouse bone marrow-derived macrophages assessed as inhibition of RANKL-induced ATP6v0d2 mRNA expression at 10 uM preincubated for 30 mins with M-CSF followed by RANKL induction measured after 3 hrs by real-time PCR analysis
[22] = target: Calmodulin-1 (Mus musculus) (UniProt P0DP26); experiment: Binding affinity to Ca2+/calmodulin complex in preosteoclast derived from ICR mouse bone marrow-derived macrophages assessed as inhibition of RANKL-induced DC-STAMP mRNA expression at 10 uM preincubated for 30 mins with M-CSF followed by RANKL induction measured after 3 hrs by real-time PCR analysis
[23] = target: T1, Tumor necrosis factor ligand superfamily member 11 (Mus musculus); experiment: Inhibition of RANKL-induced fusion of preosteoclast derived from ICR mouse bone marrow-derived macrophages assessed as formation of tartrate-resistant acid phosphatase-positive multinucleated osteoclast preincubated for 30 mins with M-CSF followed by RANKL induction measured after 1 day by TRAP staining; type: functional, cell-based
Mus musculus [24] = experiment: Antiresorptive activity in ICR mouse assessed as inhibition of LPS-induced changes in bone surface/tissue volume at 2 to 4 mg/kg, ip administered for 8 days with LPS challenge on day 2 and 5 measured on day 9 by histomorphometric analysis; type: functional, organism-based

C/C=C(/C)C(=O)O[C@@H]1[C@@H](OC(C)=O)c2c(ccc3ccc(=O)oc23)OC1(C)C
inactive: Activity (Calmodulin (Bos taurus) [7])
active: inhibition [1] | inhibition [2] Dose-dependent effect | inhibition [3] | inhibition (Mus musculus [4]) | inhibition [5] | Activity (Calmodulin (Bos taurus) [6]) | inhibition [8] | inhibition (Mus musculus [9]) | inhibition [10] Dose-dependent effect | inhibition [11] Dose-dependent effect | inhibition [12] | inhibition (Mus musculus [13]) | inhibition [14] | Activity (Mus musculus [15]) | inhibition (Mus musculus [17]) | inhibition (Mus musculus [18]) | inhibition [19] | inhibition (Mus musculus [20]) | inhibition [21] | inhibition [22] | inhibition [23] Dose-dependent effect | inhibition (Mus musculus [24])
Non-toxic: Activity [16]
